What was measured:
MC38 syngeneic tumors = assay: In vivo efficacy in MC38 syngeneic tumors in C57BL/6J B-h4-1BB humanized mice
Experimental: The MC38 murine colon carcinoma cell line was purchased from Shunran Shanghai Biological Technology Co., Ltd. The cells will be maintained in vitro as monolayer culture in Dulbecco's Modified Eagle's medium (DMEM) supplemented with 10% heat inactivated fetal calf serum, 100 U/mL penicillin and 100 μg/mL streptomycin at 37° C. in an atmosphere of 5% CO2. The tumor cells will be routinely subcultured twice weekly by trypsin-EDTA treatment. Cells growing in an exponential growth phase will be harvested and counted for tumor inoculation. 6-8 week old female C57BL/6J B-h4-1BB humanized mice were subcutaneously injected (in the flank) with MC38 tumor cells (5×10^5) with 0.1 mL PBS for tumor development. Tumor-bearing animals were randomly enrolled into six study groups when the mean tumor size reached approximately 113 mm^3 (Study 1) or 107 mm^3 (Study 2). The test and positive control articles were administrated to the tumor-bearing mice according to predetermined regimens as shown below.
Test articles were formulated in aqueous vehicle (25 mM Histidine, 10% sucrose pH=7) and administered intravenously or intraperitoneally. CD137 monoclonal antibody agonist was administered by intraperitoneal injection in 0.9% saline.
Tumor volume was measured three times a week in two dimensions using a caliper, and the volume was expressed in mm3 using the formula: V=0.5a×b2 where a and b were the long and short diameters of the tumor, respectively. Results are represented by mean and the standard deviation (Mean±SD).
In study 2, mice were sacrificed 21 days after treatment initiation and tumors were harvested for T-cell analysis by flow cytometry. Tumor were cut into small pieces and filtered through a 70 micrometer filter. Lymphocytes were isolated using Histopaque 1083 and resuspended in RPMI 1640 supplemented with 10% fetal bovine serum. Lymphocytes were stained with a cell viability dye (Zombie NIR, Biolegend, #423106) and a panel of antibodies including anti-mouse CD45 (Biolegend, #103138), anti-mouse CD3 (Biolegend, #100328), anti-mouse CD4 (Biolegend, #100438), anti-mouse CD8 (Biolegend, #100759). Stained cells were analysed by Attune N×T Flow Cytometer. T-cell results are expressed as % of CD3+ cells among CD45+ cells. CD8+ T-cell results are expressed as % of CD8+ cells among CD45+CD3+ cells. CD4+ T-cell results are expressed as % of CD4+ cells among CD45+CD3+ cells. Results are represented by mean and the standard deviation (Mean±SD) and the individual values.
Statistical analysis: Data was analyzed using 2way ANOVA or ordinary One-way ANOVA with Dunnett's test for multiple comparisons, and P<0.05 was considered to be statistically significant. Both statistical analysis and biological observations are taken into consideration. ***p<0.001, **p<0.01, *p<0.05.

[1] = tested on: Pan T-cells (isolated from human PBMCs); assay: T-cell cytokine release assay; assay type: cell-based; conditions: anti-CD3 stimulated T cells, 48 hours; FIG. 14
Experimental: Healthy human buffy coat was purchased from the Sylvan N. Goldman Oklahoma Blood Institute and shipped fresh. Peripheral blood mononuclear cells (PBMCs) were isolated by Ficoll density gradient centrifugation. Red blood cells were lysed with ACK (Ammonium-Chloride-Potassium) lysis buffer. Pan T-cells were then isolated from total PBMCs using negative magnetic bead selection (Miltenyi MACS human Pan-T cell isolation kit). Pan T-cells were then plated on anti-CD3 coated 96-well plates (0.5 μg/mL) in culture media (RPMI1640 with 10% FBS) plus or minus compounds. Supernatant from cultures was collected after 24 and 48 hours. Cytokine [i.e., interleukin-2 (IL-2), interferon gamma (IFNγ)] release in supernatant was measured by HTRF assay (CisBio) according to the kit's instructions. HTRF assay plates were read on a Clariostar plate reader (BMG Labtech) at 665 nm and 620 nm. Data was analyzed and extrapolated to a standard curve according to the HTRF kit instruction in Prism and Excel. Cytokine release fold change was calculated by dividing the pg/mL of cytokine detected by background cytokine released (CD3 stimulation alone). Data was graphed in Prism as the mean of replicates with standard deviation error bars.

CD137 [2] = target: T1, CD137 (Homo sapiens, UniProt Q07011); assay: CD137 reporter cell activity washout assay; assay type: cell-based; parameters: host or cells: Jurkat cells; conditions: 10 nM, exposure 30, 60 or 120 minutes, total 6 hours; FIG. 13
Experimental: Jurkat cells engineered to overexpress CD137 and express a luciferase gene under the NF-κB promoter were purchased from Promega. The reporter cells were incubated with 10 nM of CD137 agonists for the indicated times at 37° C. in RPMI1640 media with 1% FBS. After either 30, 60, or 120 minutes, cells were washed in an excess of culture media and resuspended in 75 μL of fresh media. A no washout condition was also included. All washout conditions were performed in duplicate. Cells then continued to incubate for a total of 6 hours (an additional 5.5, 5, or 4 hours respective to exposure times). After incubation, 75 μL of Bio-Glo reagent (Promega) was added to each well and allowed to equilibrate for 10 minutes at room temperature. Luminescence was read on the Clariostar plate reader (BMG LabTech). Fold induction was calculated by dividing the luminescence signal by background wells (reporter cells with no agonist added). The percent of the maximum fold induction was calculated by dividing the fold induction of the washout time by the fold induction of the no washout condition and multiplying by 100.

CD137 [3] = target: T1, CD137; assay: CD137 Promega reporter cell activity assay (NF-κB luciferase in Jurkat cells)

T1 sequence (Q07011 24-255): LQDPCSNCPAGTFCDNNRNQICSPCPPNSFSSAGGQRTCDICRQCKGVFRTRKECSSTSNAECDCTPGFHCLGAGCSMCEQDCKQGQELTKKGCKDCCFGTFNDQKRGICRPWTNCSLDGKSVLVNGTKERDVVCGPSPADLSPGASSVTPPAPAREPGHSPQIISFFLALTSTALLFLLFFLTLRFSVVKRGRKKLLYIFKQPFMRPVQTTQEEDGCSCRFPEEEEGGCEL

With `CCCC[C@@H]1NC(=O)[C@H](Cc2ccc(O)cc2)NC(=O)[C@@H]2CCCN2C(=O)[C@H](CC(=O)O)NC(=O)[C@H](C)NC(=O)[C@H](Cc2ccccc2)NC(=O)[C@@H]2CSCCC(=O)N3CN(CN(C3)C(=O)CCSC[C@@H](C(=O)N[C@@H](C)C(N)=O)NC1=O)C(=O)CCSC[C@H](NC(C)=O)C(=O)N[C@@H](CC(C)(C)C)C(=O)N1CCC[C@H]1C(=O)N[C@@H](CCCCNC(=O)CCc1cn(CCOCCOCCOCCOCCOCCOCCOCCOCCOCCOCCOCCOCCOCCOCCOCCOCCOCCOCCOCCOCCOCCOCCOCCNC(=O)CCOCC(COCCC(=O)NCCOCCOCCOCCOCCOCCOCCOCCOCCOCCOCCOCCOCCOCCOCCOCCOCCOCCOCCOCCOCCOCCOCCOCCn3cc(CCC(=O)NCCCC[C@@H]4NC(=O)[C@@H]5CCCN5C(=O)[C@H](CC(C)(C)C)NC(=O)[C@@H](NC(C)=O)CSCCC(=O)N5CN6CN(C5)C(=O)CCSC[C@H](NC(=O)[C@H](Cc5ccc(O)cc5)NC(=O)[C@@H]5CCCN5C(=O)[C@@H](C)NC4=O)C(=O)N[C@@H](Cc4ccccc4)C(=O)N[C@@H](C)C(=O)N[C@@H](CC(=O)O)C(=O)N4CCC[C@H]4C(=O)N[C@@H](Cc4ccc(O)cc4)C(=O)N[C@@H](CCCC)C(=O)N[C@H](C(=O)N[C@@H](C)C(N)=O)CSCCC6=O)nn3)(COCCC(=O)NCCOCCOCCOCCOCCOCCOCCOCCOCCOCCOCCOCCOCCOCCOCCOCCOCCOCCOCCOCCOCCOCCOCCOCCn3cc(CCC(=O)NCCCC[C@@H]4NC(=O)[C@@H]5CCCN5C(=O)[C@H](CC(C)(C)C)NC(=O)[C@@H](NC(C)=O)CSCCC(=O)N5CN6CN(C5)C(=O)CCSC[C@H](NC(=O)[C@H](Cc5ccc(O)cc5)NC(=O)[C@@H]5CCCN5C(=O)[C@@H](C)NC4=O)C(=O)N[C@@H](Cc4ccccc4)C(=O)N[C@@H](C)C(=O)N[C@@H](CC(=O)O)C(=O)N4CCC[C@H]4C(=O)N[C@@H](Cc4ccc(O)cc4)C(=O)N[C@@H](CCCC)C(=O)N[C@H](C(=O)N[C@@H](C)C(N)=O)CSCCC6=O)nn3)COCCC(=O)NCCOCCOCCOCCOCCOCCOCCOCCOCCOCCOCCOCCOCCOCCOCCOCCOCCOCCOCCOCCOCCOCCOCCOCCn3cc(CCC(=O)NCCCC[C@@H]4NC(=O)[C@@H]5CCCN5C(=O)[C@H](CC(C)(C)C)NC(=O)[C@@H](NC(C)=O)CSCCC(=O)N5CN6CN(C5)C(=O)CCSC[C@H](NC(=O)[C@H](Cc5ccc(O)cc5)NC(=O)[C@@H]5CCCN5C(=O)[C@@H](C)NC4=O)C(=O)N[C@@H](Cc4ccccc4)C(=O)N[C@@H](C)C(=O)N[C@@H](CC(=O)O)C(=O)N4CCC[C@H]4C(=O)N[C@@H](Cc4ccc(O)cc4)C(=O)N[C@@H](CCCC)C(=O)N[C@H](C(=O)N[C@@H](C)C(N)=O)CSCCC6=O)nn3)nn1)C(=O)N[C@H](C)C(=O)N1CCC[C@H]1C(=O)N[C@@H](Cc1ccc(O)cc1)C(=O)N2` [BCY8945] as the compound, how does the “anti-tumour activity (tumor volume), Study 2” value (MC38 syngeneic tumors; 30 mg/kg QD × 20, FIG. 8) read?
The value was “elicits anti-tumour activity”.

What about the “T-cell percentage in the tumor tissue (% CD3+ among CD45+)” value (MC38 syngeneic tumors; Study 2, 21 days of treatment, compared to CD137 monoclonal antibody agonist, FIG. 9) of the same compound?
The value was “elicits a range of increase in T-cell and CD8+ T-cell percentage”.

And the “CD8+ T-cell percentage in the tumor tissue (% CD8+ among CD45+CD3+)” value (MC38 syngeneic tumors; Study 2, 21 days of treatment, compared to CD137 monoclonal antibody agonist, FIG. 10)?
Its value is “elicits a range of increase in T-cell and CD8+ T-cell percentage”.

And the “CD4+ T-cell percentage in the tumor tissue (% CD4+ among CD45+CD3+)” value (MC38 syngeneic tumors; Study 2, 21 days of treatment, compared to CD137 monoclonal antibody agonist, FIG. 11)?
Its value is “elicits a range of decease in T-cell percentage”.

And the “pro-inflammatory cytokine (IL-2, IFNγ) secretion by T-cells” value [1]?
The value was “secrete pro-inflammatory cytokines”.

And the “cell activity after washout” value (CD137 [2])?
Its value is “maintains cell activity after washout”.

What about the “Average Fold EC50 Improvement relative to BCY7845” value (CD137 [3]) of the same compound?
Its value is 0.13.

And the “Average Relative Fold Induction relative to BCY7845” value (CD137 [3]; Average fold induction for BCY7845 = 6.3)?
The value was 1.23.

What about the “CD137 agonism / activation in reporter cells (in words)” value (CD137 [3]; FIGS. 1 to 3 and 15) of the same compound?
Its value is “activates CD137 on the surface of Jurkat reporter cells”.

Reference: US11542304B2, “Multimeric bicyclic peptide ligands” (BicycleTx Limited, priority 2018, dated 2023)
